# Values quoted from earlier work in patent publication US20220331448A1, “COMPOSITIONS AND METHODS FOR TREATING SUCCINIC SEMIALDEHYDE DEHYDROGENASE DEFICIENCY (SSADHD)” (Washington State University, priority 2018, published 2022).
# Legend:
# aldh5a1−/− mice = details: cited from earlier work
# GABA-transaminase = molecular target: T1, GABA-transaminase (Mus musculus, UniProt P61922); details: daily doses ˜10 mg/kg or osmotic minipumps; cited from earlier work
# T1 construct: from tissue; host or cells: living mice (CNS), endogenous enzyme
# T1 sequence (P61922 29-500): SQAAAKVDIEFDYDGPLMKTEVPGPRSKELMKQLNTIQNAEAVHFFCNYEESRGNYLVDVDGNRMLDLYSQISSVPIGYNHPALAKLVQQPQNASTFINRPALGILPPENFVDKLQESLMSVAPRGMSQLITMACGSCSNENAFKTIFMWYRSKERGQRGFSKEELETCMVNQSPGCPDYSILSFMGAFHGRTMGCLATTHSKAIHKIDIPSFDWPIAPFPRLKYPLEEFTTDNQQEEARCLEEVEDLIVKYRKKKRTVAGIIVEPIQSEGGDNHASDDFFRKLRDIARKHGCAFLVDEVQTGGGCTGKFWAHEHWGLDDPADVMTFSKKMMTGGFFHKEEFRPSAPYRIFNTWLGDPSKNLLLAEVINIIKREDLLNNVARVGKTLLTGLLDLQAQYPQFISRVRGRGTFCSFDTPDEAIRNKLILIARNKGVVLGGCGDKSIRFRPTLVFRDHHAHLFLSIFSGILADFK
smiles,measurement,setting,value
C=CC(N)CCC(=O)O (centres unmarked) [vigabatrin],rescue from premature lethality / lifespan extension,aldh5a1−/− mice,rescue
same,GABA in the CNS,GABA-transaminase,significantly elevated
